Results from patent EP0910563B1, “INTEGRIN RECEPTOR ANTAGONISTS” (SMITHKLINE BEECHAM CORPORATION, priority 1995, dated 1997).

Key:
αvβ3 = target: T1, αvβ3 (Homo sapiens, UniProt P05106+P06756); test: Solid-phase [3H]-SK&F-107260 binding to αvβ3 (inhibition of vitronectin binding); conditions: human placenta or platelet αvβ3 on ELISA plates, 5.0 nM [3H]-SK&F-107260
T1 construct: Human placenta or human platelet αvβ3 (0.1-0.3 mg/mL) in buffer T; from tissue; host or cells: human placenta or human platelets
T1 sequence (P06756 31-889 limits assumed): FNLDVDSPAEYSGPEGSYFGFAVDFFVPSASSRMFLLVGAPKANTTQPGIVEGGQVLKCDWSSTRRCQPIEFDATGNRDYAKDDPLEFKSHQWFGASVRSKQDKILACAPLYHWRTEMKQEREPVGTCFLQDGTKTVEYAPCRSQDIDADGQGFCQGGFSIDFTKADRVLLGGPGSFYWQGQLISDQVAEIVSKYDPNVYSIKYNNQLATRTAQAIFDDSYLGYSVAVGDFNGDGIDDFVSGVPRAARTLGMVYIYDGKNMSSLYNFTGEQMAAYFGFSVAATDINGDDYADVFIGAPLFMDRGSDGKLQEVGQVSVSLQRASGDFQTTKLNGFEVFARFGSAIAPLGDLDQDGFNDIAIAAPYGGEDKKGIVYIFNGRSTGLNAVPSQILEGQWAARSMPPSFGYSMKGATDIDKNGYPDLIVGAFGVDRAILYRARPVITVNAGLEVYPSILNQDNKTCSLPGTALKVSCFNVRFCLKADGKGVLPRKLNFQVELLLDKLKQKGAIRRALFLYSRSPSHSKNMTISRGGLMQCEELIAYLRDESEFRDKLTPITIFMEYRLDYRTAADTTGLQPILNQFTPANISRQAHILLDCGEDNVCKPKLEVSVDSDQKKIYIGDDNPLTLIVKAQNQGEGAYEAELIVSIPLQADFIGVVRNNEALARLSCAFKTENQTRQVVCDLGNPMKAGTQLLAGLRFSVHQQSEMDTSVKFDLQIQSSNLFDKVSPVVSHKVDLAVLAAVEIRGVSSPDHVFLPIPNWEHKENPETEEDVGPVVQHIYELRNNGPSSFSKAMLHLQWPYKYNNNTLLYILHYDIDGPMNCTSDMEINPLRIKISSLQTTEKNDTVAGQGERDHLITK
T1 sequence (P06756 891-1048 partner limits assumed): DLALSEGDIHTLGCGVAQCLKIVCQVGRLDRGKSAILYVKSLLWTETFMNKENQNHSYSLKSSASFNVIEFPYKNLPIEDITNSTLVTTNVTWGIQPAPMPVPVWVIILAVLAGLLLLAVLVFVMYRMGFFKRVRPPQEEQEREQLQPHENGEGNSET
T1 sequence (P05106 27-788): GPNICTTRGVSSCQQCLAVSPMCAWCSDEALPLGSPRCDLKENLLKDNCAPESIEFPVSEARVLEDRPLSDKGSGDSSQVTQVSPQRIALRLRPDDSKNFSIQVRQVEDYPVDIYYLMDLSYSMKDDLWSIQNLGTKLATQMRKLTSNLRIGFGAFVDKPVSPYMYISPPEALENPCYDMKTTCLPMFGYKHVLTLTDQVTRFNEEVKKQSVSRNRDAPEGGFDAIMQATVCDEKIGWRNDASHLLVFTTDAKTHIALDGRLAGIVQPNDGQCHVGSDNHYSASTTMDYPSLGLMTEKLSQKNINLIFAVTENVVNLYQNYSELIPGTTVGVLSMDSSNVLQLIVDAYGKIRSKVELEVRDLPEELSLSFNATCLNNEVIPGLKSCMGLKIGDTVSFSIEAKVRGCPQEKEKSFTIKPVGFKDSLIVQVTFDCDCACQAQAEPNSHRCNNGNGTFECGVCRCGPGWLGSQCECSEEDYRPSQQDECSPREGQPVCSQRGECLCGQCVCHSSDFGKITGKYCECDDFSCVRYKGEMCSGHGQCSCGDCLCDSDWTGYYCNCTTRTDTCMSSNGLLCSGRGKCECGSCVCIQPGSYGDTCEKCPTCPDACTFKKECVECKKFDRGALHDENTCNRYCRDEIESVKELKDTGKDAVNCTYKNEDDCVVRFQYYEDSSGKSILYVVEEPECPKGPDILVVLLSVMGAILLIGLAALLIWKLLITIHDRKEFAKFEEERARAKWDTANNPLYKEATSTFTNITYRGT
Description: Solid-Phase [^3H]-SK&F-107260 Binding to αvβ3: Human placenta or human platelet αvβ3 (0.1-0.3 mg/mL) in buffer T (containing 2 mM CaCl2 and 1% octylglucoside) was diluted with buffer T containing 1 mM CaCl2, 1 mM MnCl2, 1 mM MgCl2 (buffer A) and 0.05% NaN3, and then immediately added to 96-well ELISA plates (Corning, New York, NY) at 0.1 mL per well. 0.1 - 0.2 µg of αvβ3 was added per well. The plates were incubated overnight at 4°C. At the time of the experiment, the wells were washed once with buffer A and were incubated with 0.1 mL of 3.5% bovine serum albumin in the same buffer for 1 hr at room temperature. Following incubation the wells were aspirated completely and washed twice with 0.2 mL buffer A. […]
The plates were incubated for 1 hr at room temperature. […] The receptors were solubilized with 0.1 mL of 1% SDS and the bound [^3H]-SK&F-107260 was determined by liquid scintillation counting with the addition of 3 mL Ready Safe in a Beckman LS Liquid Scintillation Counter, with 40% efficiency. Nonspecific binding of [^3H]-SK&F-107260 was determined in the presence of 2 µM SK&F-107260 and was consistently less than 1% of total radioligand input. […] The Ki (dissociation constant of the antagonist) was calculated according to the equation: Ki = IC50/(1 + L/Kd), where L and Kd were the concentration and the dissociation constant of [^3H]-SK&F-107260, respectively.

[1] = target: T2, fibrinogen receptor (αIIbβ3) (Homo sapiens, UniProt P05106+P08514); test: Competitive binding of [3H]-SK&F-107260 to αIIbβ3 in liposomes; conditions: purified platelet αIIbβ3-containing liposomes, 4.5 nM [3H]-SK&F-107260
T2 construct: followed by the addition of 1 µg of the purified platelet αIIbβ3-containing liposomes; tissue Red Cross (platelets); host or cells: outdated, washed human platelets; lentil lectin sepharose purification
T2 sequence (P08514 32-887 limits assumed): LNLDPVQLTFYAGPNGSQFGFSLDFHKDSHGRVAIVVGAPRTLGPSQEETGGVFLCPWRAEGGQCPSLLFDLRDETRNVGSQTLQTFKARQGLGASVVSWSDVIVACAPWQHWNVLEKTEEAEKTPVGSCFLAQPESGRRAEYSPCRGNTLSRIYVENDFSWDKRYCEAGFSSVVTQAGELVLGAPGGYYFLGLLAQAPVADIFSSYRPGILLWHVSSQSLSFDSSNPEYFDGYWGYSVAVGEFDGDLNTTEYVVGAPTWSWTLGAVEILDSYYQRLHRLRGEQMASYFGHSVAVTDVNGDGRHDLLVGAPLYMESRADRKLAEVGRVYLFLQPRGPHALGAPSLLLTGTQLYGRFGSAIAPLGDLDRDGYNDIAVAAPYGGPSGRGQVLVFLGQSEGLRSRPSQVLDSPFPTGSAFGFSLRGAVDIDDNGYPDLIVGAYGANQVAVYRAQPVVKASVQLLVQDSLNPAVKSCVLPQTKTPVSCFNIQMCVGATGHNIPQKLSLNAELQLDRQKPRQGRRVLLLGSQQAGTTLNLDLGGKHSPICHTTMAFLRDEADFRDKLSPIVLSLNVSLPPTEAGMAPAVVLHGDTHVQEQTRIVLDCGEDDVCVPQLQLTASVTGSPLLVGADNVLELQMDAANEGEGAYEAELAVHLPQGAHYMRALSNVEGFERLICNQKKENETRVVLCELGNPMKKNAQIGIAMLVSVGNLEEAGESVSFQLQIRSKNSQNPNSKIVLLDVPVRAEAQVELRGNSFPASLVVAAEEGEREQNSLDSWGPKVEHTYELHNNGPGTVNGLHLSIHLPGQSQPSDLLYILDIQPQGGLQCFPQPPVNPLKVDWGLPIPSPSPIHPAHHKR
T2 sequence (P08514 891-1039 partner limits assumed): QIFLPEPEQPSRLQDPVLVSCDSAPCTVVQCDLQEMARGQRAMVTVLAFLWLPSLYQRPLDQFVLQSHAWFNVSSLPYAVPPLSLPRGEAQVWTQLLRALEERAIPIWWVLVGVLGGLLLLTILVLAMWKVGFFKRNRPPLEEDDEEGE
T2 sequence (P05106 27-788): as the sequence (P05106 27-788) above
Description: Ten units of outdated, washed human platelets (obtained from Red Cross) were lyzed by gentle stirring in 3% octylglucoside, 20 mM Tris-HCl, pH 7.4, 140 mM NaCl, 2 mM CaCl2 at 4°C for 2 h. The lysate was centrifuged at 100,000g for 1 h. The supernatant obtained was applied to a 5 mL lentil lectin sepharose 4B column (E.Y. Labs) preequilibrated with 20 mM Tris-HCl, pH 7.4, 100 mM NaCI, 2 mM CaCl2, 1% octylglucoside (buffer A). After 2 h incubation, the column was washed with 50 mL cold buffer A. The lectin-retained αIIbβ3 was eluted with buffer A containing 10% dextrose. All procedures were performed at 4°C. The αIIbβ3 obtained was >95% pure as shown by SDS polyacrylamide gel electrophoresis. […]
The binding to the fibrinogen receptor (αIIbβ3) was assayed by an indirect competitive binding method using [^3H]-SK&F-107260 as an RGD-type ligand. […] Bound radioactivity remaining on the filters was counted in 1.5 mL Ready Solve (Beckman Instruments, Fullerton, CA) in a Beckman Liquid Scintillation Counter (Model LS6800), with 40% efficiency. Nonspecific binding was determined in the presence of 2 µM unlabeled SK&F-107260 and was consistently less than 0.14% of the total radioactivity added to the samples. […]
Competition binding data were analyzed by a nonlinear least-squares curve fitting procedure. […]

| Compound | Ki (αvβ3) [nM] | Ki [1] [nM] |
| --- | --- | --- |
| CN(Cc1nc2ccccc2[nH]1)C(=O)c1ccc2c(c1)Cc1ccccc1C(CC(=O)O)C2 (racemic) [Example 1, (±)-10,11-dihydro-3-[[[(1H-benzimidazol-2-yl)methyl]methylamino]carbonyl]-5H-dibenzo[a,d]cycloheptene-10-acetic acid] | 23 | > 50000 |
| O=C(O)CC1Cc2ccc(C(=O)N3CCC(C4CCNCC4)CC3)cc2Cc2ccccc21 (racemic) [Example 2, (±)-10,11-dihydro-3-[1-(4,4'-bipiperidinyl)carbonyl]-5H-dibenzo[a,d]cycloheptene-10-acetic acid] | 15000 | 9 |
